Reference: the supplement of paper PMC10307832

Compound: O=C(CCCCCCC(=O)Nc1ccccc1)NO [Vorinostat]
Test: relative viability (nuclei count vs DMSO), 5 days (fraction); higher = more cells survive
How it was run: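 Nuclei counted with MetaXpress define viability as the ratio of treated to vehicle wells, given as a median across plates. The lung cancer cell lines were in 1536-well plates, pinned with five √10-spaced library-drug doses and imaged at 4× after 5 days and Hoechst staining. Plates passed with control CV below 25% and at least one doubling.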

Cell Line | relative viability (0.253 µM) | relative viability (0.8 µM) | relative viability (1 µM, anchor plate) | relative viability (2.53 µM) | relative viability (8 µM)
EPLC-272H | 0.976 | 0.767 | 0.533 | 0.373 | 0.157
HCC-366 | 1.01 | 0.956 | 0.371 | 0.524 | 0.045
H3255 | 1.02 | 1.13 | 0.791 | 0.573 | 0.286
RERF-LC-KJ | 1.04 | 0.911 | 0.698 | 0.405 | 0.246
SW 900 | 0.653 | 0.644 | 0.576 | 0.391 | 0.128
NCI-H647 | 1.16 | 0.731 | 0.539 | 0.199 | 0.0541
NCI-H1915 | 1.12 | 0.878 | 0.524 | 0.514 | 0.123
NCI-H2228 | 0.93 | 0.802 | 0.654 | 0.476 | 0.146
NCI-H2087 | 1.03 | 0.634 | 0.737 | 0.246 | 0.0956
COR-L23 | 1.09 | 0.763 | 0.426 | 0.18 | 0.0822
NCI-H2126 | 1.03 | 0.875 | 0.769 | 0.655 | 0.257
NCI-H1395 | 0.91 | 0.919 | 0.834 | 0.631 | 0.387
NCI-H727 | 1.11 | 0.813 | 1.19 | 0.514 | 0.31
LU99A | 1.1 | 0.809 | 0.537 | 0.513 | 0.209
NCI-H23 | 1.14 | 0.985 | 0.653 | 0.541 | 0.136
ABC-1 | 1.16 | 0.707 | 1.23 | 0.32 | 0.171
NCI-H1993 | 1.08 | 1 | 0.823 | 0.705 | 0.56
COR-L 105 | 1.42 | 0.858 | 0.868 | 0.501 | 0.237
NCI-H3122 | 1.06 | 1.04 | 0.986 | 0.737 | 0.156

Cell Line | relative viability (0.253 µM) | relative viability (0.8 µM) | relative viability (1 µM, anchor plate) | relative viability (2.53 µM) | relative viability (8 µM)
HCC-15 | 1.16 | 0.909 | 0.885 | 0.655 | 0.145
NCI-H520 | 1.35 | 0.955 | 0.745 | 0.503 | 0.175
NCI-H2347 | 1.11 | 0.962 | 0.61 | 0.777 | 0.262
201T | 1.07 | 0.848 | 0.946 | 0.855 | 0.324
NCI-H2009 | 1.14 | 0.878 | 0.711 | 0.482 | 0.153
NCI-H661 | 1.11 | 0.974 | 0.8 | 0.548 | 0.351
BEN | 1.04 | 0.678 | 0.597 | 0.248 | 0.0942
NCI-H1355 | 1.16 | 0.852 | 0.673 | 0.598 | 0.192
PC-14 | 1.25 | 0.886 | 0.725 | 0.171 | 0.051
NCI-H1650 | 1.03 | 0.758 | 0.583 | 0.325 | 0.163
SW 1573 | 1.25 | 0.938 | 0.84 | 0.485 | 0.0973
NCI-H1975 | 1.08 | 0.817 | 0.707 | 0.449 | 0.14
HCC-827 | 1.15 | 1.12 | 0.882 | 0.934 | 0.416
HARA | 1.03 | 0.593 | 0.561 | 0.434 | 0.121
LCLC-103H | 1.08 | 0.961 | 0.781 | 0.812 | 0.272
EMC-BAC-2 | 0.92 | 0.752 | 0.493 | 0.363 | 0.176
NCI-H650 | 0.939 | 0.792 | 0.457 | 0.481 | 0.158
NCI-H460 | 1.09 | 0.955 | 0.715 | 0.144 | 0.0458
NCI-H1651 | 1.01 | 0.928 | 0.579 | 0.203 | 0.0791
